In patent publication US8664225B2, “1-[2-(2,4-dimethylphenylsulfanyl)-phenyl] piperazine as a compound with combined serotonin reuptake, 5-HT3 and 5-HT1A activity for the treatment of pain or residual symptoms in depression relating to sleep and cognition” (H. Lundbeck A/S, priority 2007, dated 2014):
Where two headings read alike, the source gives them in different places.

Tests used:
[1] = physchem; conditions: water
[2] = Hygroscopicity (water absorption at relative humidity); type: physicochemical
Text: Some compounds are hygroscopic, i.e. the absorb water when exposed to humidity. Hygroscopicity is generally regarded as an undesired property for compounds that are to be presented in a pharmaceutical formulation, in particular in a dry formulation, such as tablets. In one embodiment, the invention provides the use of crystals with low hygroscopicity. For oral dosage forms using crystalline active ingredients it is also beneficial if said crystals are well-defined. In the present context, the term “well-defined” in particular means that the stoichiometry is well-defined, i.e. that the ratio between the ions forming the salt is the ratio between small integers, such as 1:1, 1:2, 2:1, 1:1:1, etc. In one embodiment, the compound I forms well-defined crystals.

[3] = system: extra-cellular levels of ACh; assay: Extracellular acetylcholine levels in brain of freely moving rats (microdialysis); type: in vivo, rat; conditions: 2.5-10 mg/kg s.c.
Description: The animals were administered 1-[2-(2,4-dimethylphenylsulfanyl)phenyl]piparazine, HBr salt.
Male Sprague-Dawley rats, initially weighing 275-300 g, were used. The animals were housed under a 12-hr light/dark cycle under controlled conditions for regular in-door temperature (21±2° C.) and humidity (55±5%) with food and tap water available ad libitum.
Rats were anaesthetised with hypnorm/dormicum (2 ml/kg) and intracerebral guide cannulas (CMA/12) were stereotaxically implanted into the brain, aiming at positioning the dialysis probe tip in the ventral hippocampus (co-ordinates: 5.6 mm posterior to bregma, lateral −5.0 mm, 7.0 mm ventral to dura) or in the prefrontal cortex (co-ordinates: 3.2 mm anterior to bregma; lateral, 0.8 mm; 4.0 mm ventral to dura). […] The body temperature of the animals was monitored by rectal probe and maintained at 37° C. […]
The compound dissolved in 10% HPbetaCD and injected subcutaneously (2.5-10 mg/kg). Doses are expressed as mg salt/kg body weight. […]
Concentration of acetylcholine (ACh) in the dialysates was analysed by means of HPLC with electrochemical detection using a mobile phase consisting of 100 mM disodium hydrogenphosphate, 2.0 mM octane sulfonic acid, 0.5 mM tetramethyl-ammonium chloride and 0.005% MB (ESA), pH 8.0. […] The latter was detected electrochemical by using a platinum electrode (Analytical cell: ESA, model 5040). […]

[4] = system: Sprague-Dawley rats; assay: Contextual fear conditioning in rats; type: in vivo, rat; conditions: 1, 5 and 10 mg/kg s.c. 1 h prior to acquisition, any dose tested
Text: The compound administered in the present experiment was 1-[2-(2,4-dimethylphenylsulfanyl)phenyl]piperazine HBr salt.
We have studied the effect of the compound on acquisition, consolidation and recall of contextual fear conditioning in rats. In the fear conditioning paradigm animals learn to associate a neutral environment (context, the training chamber, CS) with an aversive experience (an electrical foot-shock, US). During re-exposure to the training chamber, animals express a freezing behaviour, which is taken as a direct measure of the fear-related memory [Pavlov J. Biol. Sci., 15, 177-182, 1980]. […] Neurosci., 106, 274-285, 1992].
Adult male Sprague-Dawley rats (weighing 250-300 g at time of training) from Charles River Laboratories, housed two per cage under a 12 h light/dark cycle, were used. Food and water were available ad libitum. […]
During the acquisition animals were allowed to freely explore the novel environment for a 1 min habituation period, which co-terminated with one inescapable foot-shock (unconditioned stimulus, US) through the electrifiable grid floor. […] Freezing behaviour was scored during the first 58 s (pre-shock acquisition; experimenter blinded to groups) to determine baseline-freezing responses to the context. […] Freezing behaviour was scored during the whole test period with the experimenter blinded to groups and presented as percent of total test period.

[5] = system: rat; assay: Chronic constriction nerve injury model; type: in vivo; conditions: 7.9 mg/kg s.c., 60 minutes, FIG. 26
Description: This model of neuropathic pain involves the application of four loose ligations around one sciatic nerve of the rat over a period of time to develop both hyperalgesia and allodynia. The effect of test compounds in this test is measured as the time to withdraw the paw upon a thermal stimuli.

[6] = Solubility in water

Q: For Br.Cc1ccc(Sc2ccccc2N2CCNCC2)c(C)c1 [alpha form of the hydrobromide, 1-[2-(2,4-Dimethylphenylsulfanyl)-phenyl]piperazine hydrobromide], which solubility [1] is on record?
A: The solubility was 2000 µg/mL.

Q: With Br.Cc1ccc(Sc2ccccc2N2CCNCC2)c(C)c1 [hemi hydrate of the hydrobromide, 1-[2-(2,4-Dimethylphenylsulfanyl)-phenyl]piperazine hydrobromide] as the compound, how does the water content ([2]; room temperature and 95% RH) read?
A: The water content was “about 3.7%”.

Q: Which “hygroscopicity (in words)” value [2] does the source give for Cc1ccc(Sc2ccccc2N2CCNCC2)c(C)c1 [crystalline base, 1-[2-(2,4-Dimethylphenylsulfanyl)-phenyl]piperazine] here?
A: Its value is “not hygroscopic”.

Q: Which solubility [1] does the source give for Cc1ccc(Sc2ccccc2N2CCNCC2)c(C)c1.Cl [hydrochloride, 1-[2-(2,4-Dimethylphenylsulfanyl)-phenyl]piperazine hydrochloride] here?
A: Its solubility is 3000 µg/mL.

Q: Which “water absorbed at 30% RH” value ([2]; 30% RH at room temperature) does the source give for Br.Cc1ccc(Sc2ccccc2N2CCNCC2)c(C)c1 [gamma form of the hydrobromide, 1-[2-(2,4-Dimethylphenylsulfanyl)-phenyl]piperazine hydrobromide] here?
A: Its value is “about 2%”.

Q: With Cc1ccc(Sc2ccccc2N2CCNCC2)c(C)c1.O=[N+]([O-])O [nitrate, 1-[2-(2,4-Dimethylphenylsulfanyl)-phenyl]piperazine nitrate] as the compound, how does the solubility [1] read?
A: The solubility was roughly 800 µg/mL.

Q: Which solubility [1] does the source give for Cc1ccc(Sc2ccccc2N2CCNCC2)c(C)c1.O=C(O)/C=C\C(=O)O [maleate, 1-[2-(2,4-Dimethylphenylsulfanyl)-phenyl]piperazine Maleate] here?
A: Its solubility is roughly 1000 µg/mL.

Q: Which solubility [1] does the source give for Cc1ccc(Sc2ccccc2N2CCNCC2)c(C)c1.O=C(O)C(O)C(O)C(=O)O [L-(+)-tartrate, 1-[2-(2,4-Dimethylphenylsulfanyl)-phenyl]piperazine (+)-tartaric acid] here?
A: The solubility was roughly 400 µg/mL.

Q: With Cc1ccc(Sc2ccccc2N2CCNCC2)c(C)c1.O=P(O)(O)O [phosphate, 1-[2-(2,4-Dimethylphenylsulfanyl)-phenyl]piperazine phosphate] as the compound, how does the solubility [1] read?
A: Its solubility is roughly 1000 µg/mL.

Q: For CS(=O)(=O)O.Cc1ccc(Sc2ccccc2N2CCNCC2)c(C)c1 [mesylate, 1-[2-(2,4-Dimethylphenylsulfanyl)-phenyl]piperazine mesylate], which solubility [1] is on record?
A: Its solubility is greater than 45000 µg/mL.

Q: With Cc1ccc(Sc2ccccc2N2CCNCC2)c(C)c1.O=S(=O)(O)O [sulphate, 1-[2-(2,4-Dimethylphenylsulfanyl)-phenyl]piperazine sulphate] as the compound, how does the solubility [1] read?
A: Its solubility is roughly 100 µg/mL.

Q: With Br.Cc1ccc(Sc2ccccc2N2CCNCC2)c(C)c1 [compound I (HBr salt), 1-[2-(2,4-dimethylphenylsulfanyl)phenyl]piperazine HBr salt] as the compound, how does the “extra-cellular levels of ACh in prefrontal cortex” value ([3]; FIG. 19a) read?
A: Its value is “significantly increased”.

Q: What about the “extra-cellular levels of ACh in ventral hippocampus” value ([3]; FIG. 19b) of the same compound?
A: Its value is “significantly increased”.

Q: And the “baseline freezing behaviour before the foot shock” value [4]?
A: Its value is “does not affect”.

Q: What about the “withdrawal latency following a thermal stimuli” value [5] of the same compound?
A: The value was “significant and dose-dependant withdrawal latency”.

Q: For Cc1ccc(Sc2ccccc2N2CCNCC2)c(C)c1.Cl [hydrochloride monohydrate, 1-[2-(2,4-Dimethylphenylsulfanyl)-phenyl]piperazine HCl], which “hygroscopicity (in words)” value [2] is on record?
A: Its value is “does not absorb further amount of water”.

Q: What about the solubility in water ([6]; HCl) of the same compound?
A: The solubility in water was “about 2 mg/ml”.

Q: Which solubility in water [6] does the source give for Cc1ccc(Sc2ccccc2N2CCNCC2)c(C)c1 [fumarate, 1-[2-(2,4-Dimethylphenylsulfanyl)-phenyl]piperazine] here?
A: The solubility in water was 400 µg/mL.
